Experimental data reported in patent publication US4287206A, “Halogen derivatives of 8-hydroxycarboxylic acids; the processes for their preparation and medicaments in which they are present” (priority 1978, dated 1981).

Experiments:
Type in all cases: in vivo
mice [1] = assay: Interaction with barbital sodium (sleep induced by barbital sodium in mice); conditions: barbital sodium 180 mg.kg^-1 i.p.
Method: Interaction with barbital sodium
At time 0, the mice receive, by intraperitoneal or oral administration, distilled water or the medicament according to the invention. After 30 minutes, they receive barbital sodium (180 mg.kg^-1) by intraperitoneal administration.

mice [2] = assay: Anti-apomorphine activity in mice (hypothermia caused by apomorphine)
mice [3] = assay: Sleep induced by pentobarbital in mice; conditions: pentobarbital 50 mg.kg^-1 i.p.
Method: (b) Absence of modification of the effects of pentobarbital
At time 0, the mice receive, by intraperitoneal or oral administration, distilled water or the medicament according to the invention, obtained in accordance with Example I. After 30 minutes, they receive pentobarbital (50 mg.kg^-1) by intraperitoneal administration.

CC1CC(c2ccc(Cl)cc2)C(c2ccccc2)C(=O)O1 (stereo not drawn) [Example I, trans-4-(4'-chlorophenyl)-6-methyl-3-phenyl-3,4,5,6-tetrahydropyrone-2]
% of mice which have slept (mice [1]; 2 mg/kg intraperitoneal): 100% | Time in minutes for induction of sleep (mice [1]; 2 mg/kg intraperitoneal): 27 min | Time in minutes of sleep (mice [1]; 2 mg/kg intraperitoneal): 67 ± 16 min | % of mice which have slept (mice [1]; 2 mg/kg oral): 83% | Time in minutes for induction of sleep (mice [1]; 2 mg/kg oral): 25 min | Time in minutes of sleep (mice [1]; 2 mg/kg oral): 47 ± 15 min | % of mice which have slept (mice [1]; 4 mg/kg intraperitoneal): 83% | Time in minutes for induction of sleep (mice [1]; 4 mg/kg intraperitoneal): 22 min | Time in minutes of sleep (mice [1]; 4 mg/kg intraperitoneal): 37 ± 13 min | % of mice which have slept (mice [1]; 4 mg/kg oral): 25% | Time in minutes for induction of sleep (mice [1]; 4 mg/kg oral): 33 min | Time in minutes of sleep (mice [1]; 4 mg/kg oral): 56 min | % of mice which have slept (mice [1]; 8 mg/kg intraperitoneal): 83% | Time in minutes for induction of sleep (mice [1]; 8 mg/kg intraperitoneal): 30 min | Time in minutes of sleep (mice [1]; 8 mg/kg intraperitoneal): 25 ± 4 min | % of mice which have slept (mice [1]; 8 mg/kg oral): 42% | Time in minutes for induction of sleep (mice [1]; 8 mg/kg oral): 32 min | Time in minutes of sleep (mice [1]; 8 mg/kg oral): 43 min | % of mice which have slept (mice [1]; 16 mg/kg intraperitoneal): 33% | Time in minutes for induction of sleep (mice [1]; 16 mg/kg intraperitoneal): 38 min | Time in minutes of sleep (mice [1]; 16 mg/kg intraperitoneal): 14 min | % of mice which have slept (mice [1]; 16 mg/kg oral): 0% | Time in minutes for induction of sleep (mice [1]; 16 mg/kg oral): 0 min | Time in minutes of sleep (mice [1]; 16 mg/kg oral): 0 min | % of mice which have slept (mice [1]; 32 mg/kg intraperitoneal): 0% | Time in minutes for induction of sleep (mice [1]; 32 mg/kg intraperitoneal): 0 min | Time in minutes of sleep (mice [1]; 32 mg/kg intraperitoneal): 0 min | % of mice which have slept (mice [1]; 32 mg/kg oral): 00% | Time in minutes for induction of sleep (mice [1]; 32 mg/kg oral): 0 min | Time in minutes of sleep (mice [1]; 32 mg/kg oral): 0 min | Rectal temperatures, results in % inhibition of the hypothermia (mice [2]; 0.5 mg/kg intraperitoneal, apomorphine 1 mg.kg^-1 subcutaneously): 7% | Rectal temperatures, results in % inhibition of the hypothermia (mice [2]; 0.5 mg/kg intraperitoneal, apomorphine 16 mg.kg^-1 subcutaneously): -5% | Rectal temperatures, results in % inhibition of the hypothermia (mice [2]; 2 mg/kg intraperitoneal, apomorphine 1 mg.kg^-1 subcutaneously): 3% | Rectal temperatures, results in % inhibition of the hypothermia (mice [2]; 2 mg/kg intraperitoneal, apomorphine 16 mg.kg^-1 subcutaneously): 45% | Rectal temperatures, results in % inhibition of the hypothermia (mice [2]; 4 mg/kg intraperitoneal, apomorphine 1 mg.kg^-1 subcutaneously): -13% | Rectal temperatures, results in % inhibition of the hypothermia (mice [2]; 4 mg/kg intraperitoneal, apomorphine 16 mg.kg^-1 subcutaneously): 39% | Rectal temperatures, results in % inhibition of the hypothermia (mice [2]; 4 mg/kg oral, apomorphine 1 mg.kg^-1 subcutaneously): 0% | Rectal temperatures, results in % inhibition of the hypothermia (mice [2]; 4 mg/kg oral, apomorphine 16 mg.kg^-1 subcutaneously): 31% | Rectal temperatures, results in % inhibition of the hypothermia (mice [2]; 8 mg/kg oral, apomorphine 1 mg.kg^-1 subcutaneously): -2% | Rectal temperatures, results in % inhibition of the hypothermia (mice [2]; 8 mg/kg oral, apomorphine 16 mg.kg^-1 subcutaneously): 40% | Rectal temperatures, results in % inhibition of the hypothermia (mice [2]; 16 mg/kg intraperitoneal, apomorphine 1 mg.kg^-1 subcutaneously): 10% | Rectal temperatures, results in % inhibition of the hypothermia (mice [2]; 16 mg/kg intraperitoneal, apomorphine 16 mg.kg^-1 subcutaneously): 51% | Rectal temperatures, results in % inhibition of the hypothermia (mice [2]; 16 mg/kg oral, apomorphine 1 mg.kg^-1 subcutaneously): 0.5% | Rectal temperatures, results in % inhibition of the hypothermia (mice [2]; 16 mg/kg oral, apomorphine 16 mg.kg^-1 subcutaneously): 42% | Rectal temperatures, results in % inhibition of the hypothermia (mice [2]; 32 mg/kg oral, apomorphine 1 mg.kg^-1 subcutaneously): 45% | Rectal temperatures, results in % inhibition of the hypothermia (mice [2]; 32 mg/kg oral, apomorphine 16 mg.kg^-1 subcutaneously): 77% | Rectal temperatures, results in % inhibition of the hypothermia (mice [2]; 64 mg/kg oral, apomorphine 1 mg.kg^-1 subcutaneously): 51% | Rectal temperatures, results in % inhibition of the hypothermia (mice [2]; 64 mg/kg oral, apomorphine 16 mg.kg^-1 subcutaneously): 86% | Rectal temperatures, results in % inhibition of the hypothermia (mice [2]; 128 mg/kg oral, apomorphine 1 mg.kg^-1 subcutaneously): 68% | Rectal temperatures, results in % inhibition of the hypothermia (mice [2]; 128 mg/kg oral, apomorphine 16 mg.kg^-1 subcutaneously): 81% | Rectal temperatures, results in % inhibition of the hypothermia (mice [2]; 256 mg/kg oral, apomorphine 1 mg.kg^-1 subcutaneously): 89% | Rectal temperatures, results in % inhibition of the hypothermia (mice [2]; 256 mg/kg oral, apomorphine 16 mg.kg^-1 subcutaneously): 116% | % of mice which have slept (mice [3]; 2 mg/kg intraperitoneal): 100% | Time in minutes for induction of sleep (mice [3]; 2 mg/kg intraperitoneal): 4 min | Time in minutes of sleep (mice [3]; 2 mg/kg intraperitoneal): 47 ± 7 min | % of mice which have slept (mice [3]; 2 mg/kg oral): 100% | Time in minutes for induction of sleep (mice [3]; 2 mg/kg oral): 4 min | Time in minutes of sleep (mice [3]; 2 mg/kg oral): 60 ± 8 min | % of mice which have slept (mice [3]; 4 mg/kg intraperitoneal): 100% | Time in minutes for induction of sleep (mice [3]; 4 mg/kg intraperitoneal): 4 min | Time in minutes of sleep (mice [3]; 4 mg/kg intraperitoneal): 55 ± 8 min | % of mice which have slept (mice [3]; 4 mg/kg oral): 100% | Time in minutes for induction of sleep (mice [3]; 4 mg/kg oral): 4 min | Time in minutes of sleep (mice [3]; 4 mg/kg oral): 45 ± 4 min | % of mice which have slept (mice [3]; 8 mg/kg intraperitoneal): 100% | Time in minutes for induction of sleep (mice [3]; 8 mg/kg intraperitoneal): 4 min | Time in minutes of sleep (mice [3]; 8 mg/kg intraperitoneal): 36 ± 3 min | % of mice which have slept (mice [3]; 8 mg/kg oral): 100% | Time in minutes for induction of sleep (mice [3]; 8 mg/kg oral): 4 min | Time in minutes of sleep (mice [3]; 8 mg/kg oral): 57 ± 10 min
